The results in this text go back to patent US10906894B2, “Compounds containing benzo[d][1,3]oxathiole, benzo[d][1,3]oxathiole 3-oxide or benzo[d][1,3]oxathiole 3,3-dioxide and methods/uses thereof as agonists of g protein-coupled receptor 119” (PRAMANA PHARMACEUTICALS INC., priority 2016, dated 2021).

This assay deals with T1, GPR119 (Homo sapiens, UniProt Q8TDV5).
T1 sequence (Q8TDV5 1-335): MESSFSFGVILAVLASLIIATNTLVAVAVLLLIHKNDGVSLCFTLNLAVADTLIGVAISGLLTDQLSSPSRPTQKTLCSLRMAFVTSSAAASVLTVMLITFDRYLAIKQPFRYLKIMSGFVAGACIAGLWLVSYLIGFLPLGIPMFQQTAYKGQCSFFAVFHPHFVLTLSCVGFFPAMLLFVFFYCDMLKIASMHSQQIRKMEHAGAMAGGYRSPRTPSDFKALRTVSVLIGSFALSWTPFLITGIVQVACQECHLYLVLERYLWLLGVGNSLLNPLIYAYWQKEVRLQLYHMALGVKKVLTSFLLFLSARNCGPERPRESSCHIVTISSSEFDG
Description: LANCE Ultra cAMP assay: stimulation of GPR119-mediated cAMP production in CHO cells stably expressing human GPR119 receptor. Type of assay: cell-based. The following applies: for Emax: CHO, read-out: % cAMP Max. relative to forscolin. As to the method:
The potency of GPR119 receptor agonists was assessed by measuring the stimulation of GPR119-mediated cAMP production with LANCE Ultra cAMP assay (Perkin Elmer, TRF0264) in CHO cells stably expressing human GPR119 receptor (Chantest, cat. #A633). CHO-GPR119 cells were cultured in DMEM/F12 medium supplemented with 10% FBS and 1% NEAA at 37° C., 5% CO2, aliquoted and frozen in liquid nitrogen.
For assay, cells were thawed in a water bath at 37° C., washed in Hank's Balanced Salt Solution (HBSS) and resuspended in Stimulation Buffer 1 (SB1) for 30 min: 5 mM HEPES, pH 7.2-7.4, 0.1% BSA in HBSS. […] The ULight-anti-cAMP antibody (Perkin Elmer, TRF0264) was added to the cell suspension making Mix [Cell suspension/4× ULight-anti-cAMP antibodies]. […] The assay plate was centrifuged 200 g, 5 sec.
Serial dilution (100×) of tested compounds were prepared in DMSO in the range of from 30 nM to 1 mM with half-log step in 384-well plates (Greiner, 781280) using Biomek 2000. 10 test concentrations in two repeats were prepared for each CRC. […] The assay plate was incubated 30 minutes at room temperature on a shaker, 250 rpm to allow GPR119 receptor stimulation. The cAMP level was determined according to the standard kit supplier protocol (PerkinElmer, cat. #TRF0264).
(§1) The stock solution of the Eu-cAMP tracer (Perkin Elmer, TRF0264) was diluted 1:100 in cAMP Detection Buffer (Perkin Elmer, TRF0264), making 2× working concentration and added to the assay plate, 10 μL per well. Assay plate was centrifuged 180 g, 1 sec. Then the assay plate was incubated for 60′ at room temperature on shaker, 250 rpm to allow cAMP detection. The TR-FRET signal was measured at Ex-340 nm/Em-615 and Ex-340 nm/Em-665 nm on the reader Tecan M1000. 0% of cAMP stimulation corresponds to the cells with DMSO only, 100% of cAMP stimulation corresponds to the cells with 10 uM Forskolin. The EC50 value defined as the concentration of the drug that gives half-maximal response, were calculated using GraphPad Prizm 5.0 software with forskolin was used as references at each test. Entries 1-17 in Table A-2 show the biological activity of certain representative compounds using the protocol as described above.
For assay, cells were thawed in a water bath at 37° C., washed in Hank's Balanced Salt Solution (HBSS) and resuspended in Stimulation Buffer 1 (SB1) for 30 min: 5 mM HEPES, pH 7.2-7.4, 0.1% BSA in HBSS. […] The ULight-anti-cAMP antibody (Perkin Elmer, TRF0264) was added to the cell suspension, making Mix [Cell suspension/4× ULight-anti-cAMP antibodies]. […] The assay plate was centrifuged 200 g, 5 sec.
as §1, with “1-14” for “1-17”, “B-2” for “A-2”

The mark [1] stands for this setting: Table A-2 entries 1-17, protocol as described, 100% = 10 uM Forskolin.
[2] abbreviates: Table A-2 entries 1-17, protocol as described (800 000 cells/mL, 5 uL/well), CHO-GPR119 cells.
The mark [3] stands for this setting: Table A-2 entries 18-25, modified protocol, 500 cells/well.

Like-named read-outs stand apart in the source and are kept apart here.

Consider `CC(C)(C)N1CCC(COc2ccc(-c3ccc4c(c3)OCS4(=O)=O)cc2F)CC1` [A-13], for which, under setting [1], the Emax was determined as 75%. Also, under setting [2], the EC50 was 833 nM.

In the case of `CN(C)C(=O)N1CCC(COc2ccc(-c3ccc4c(c3)OCS4(=O)=O)cc2F)CC1` [A-14], the Emax under setting [1] was determined as 77%. The same compound showed an EC50 under setting [2] of 86.4 nM.

Turning to `CC(C)(C)C(=O)N1CCC(COc2ccc(-c3ccc4c(c3)OCS4(=O)=O)cc2F)CC1` [A-15], the Emax under setting [1] is 80%. The compound also came in with an EC50 under setting [2] of 61.7 nM.

Turning to `NCC(=O)N1CCC(COc2ccc(-c3ccc4c(c3)OCS4(=O)=O)cc2F)CC1` [A-17], under setting [1], the Emax stood at 67%. Moreover, under setting [2], the EC50 is at least 10000 nM.

`CC(C)[C@H](N)C(=O)N1CCC(COc2ccc(-c3ccc4c(c3)OCS4(=O)=O)cc2F)CC1` [A-19]: the Emax under setting [1] came to 65%. Moreover, a half-maximal effect under setting [2] (EC50) was put at 4080 nM.

Turning to `NC(=O)N1CCC(COc2ccc(-c3ccc4c(c3)OCS4(=O)=O)cc2F)CC1` [A-20], under setting [1], the Emax amounted to 70%. Besides, the EC50 under setting [2] was at least 10000 nM.

In the case of `CC(C)C(=O)N1CCC(COc2ccc(-c3ccc4c(c3)OCS4(=O)=O)cc2F)CC1` [A-21], the Emax under setting [1] worked out at 77%. Further, it took 37 nM to reach a half-maximal effect under setting [2] (EC50).

`CCc1cnc(N2CCC(COc3ccc(-c4ccc5c(c4)OCS5(=O)=O)cc3F)CC2)nc1` [A-24]: under setting [1], the Emax was found to be 77%. The EC50 under setting [2] was found to be 2.5 nM.

Turning to `O=S1(=O)COc2cc(-c3cnc(OCC4CCN(c5ncc(Cl)cn5)CC4)nc3)ccc21` [A-29, 6-(2-((1-(5-Chloropyrimidin-2-yl)piperidin-4-yl)methoxy)pyrimidin-5-yl)-2H-benzo[d][1,3]oxathiole 3,3-dioxide], under setting [1], the Emax is 80%. Moreover, the EC50 under setting [2] came out at 33.1 nM.

Consider `O=S1(=O)COc2ccc(-c3ccc(OCC4CCN(c5ncc(Cl)cn5)CC4)c(F)c3)cc21` [A-40], for which the Emax under setting [1] came out at 65%. Besides, under setting [2], the EC50 worked out at 369 nM.

Consider `O=S1(=O)COc2cc(-c3ccc(OCC4CCN(c5ncncn5)CC4)c(F)c3)ccc21` [A-42, 6-(4-((1-(1,3,5-Triazin-2-yl)piperidin-4-yl)methoxy)-3-fluorophenyl)-2H-benzo[d][1,3]oxathiole 3,3-dioxide], for which the Emax under setting [1] was 75%. Moreover, the EC50 under setting [2] is 102 nM.

With `O=S1(=O)COc2cc(-c3ccc(OCC4CN(c5ncc(Cl)cn5)C4)c(F)c3)ccc21` [A-48, 6-(4-((1-(5-Chloropyrimidin-2-yl)azetidin-3-yl)methoxy)-3-fluorophenyl)-2H-benzo[d][1,3]oxathiole 3,3-dioxide], the Emax under setting [1] was found to be 80%. This compound gave an EC50 under setting [2] of 67 nM.

For `CC(C)c1noc(N2CC(COc3ccc(-c4ccc5c(c4)OCS5(=O)=O)cc3F)C2)n1` [A-52, 6-(3-Fluoro-4-((1-(3-isopropyl-1,2,4-oxadiazol-5-yl)azetidin-3-yl)methoxy)phenyl)-2H-benzo[d][1,3]oxathiole 3,3-dioxide], under setting [1], the Emax is 81%. Under setting [2], this compound returned an EC50 of 24 nM.

On to `O=S1(=O)COc2cc(-c3ccc(OCc4cnc(C5CCN(c6ncc(Cl)cn6)CC5)s4)c(F)c3)ccc21` [Example A-58, 6-(4-((2-(1-(5-Chloropyrimidin-2-yl)piperidin-4-yl)thiazol-5-yl)methoxy)-3-fluorophenyl)-2H-benzo[d][1,3]oxathiole-3,3-dioxide], for which the Emax under setting [1] came to 73%. Further, the EC50 under setting [2] amounted to 96 nM.

As to `CC(C)c1noc(N2CCC(COc3ccc(-c4ccc5c(c4)OCS5(=O)=O)cc3F)CC2)n1` [Example A-59, 6-(3-Fluoro-4-((1-(3-isopropyl-1,2,4-oxadiazol-5-yl)piperidin-4-yl)methoxy)phenyl)-2H-benzo[d][1,3]oxathiole 3,3-dioxide], the Emax under setting [1] is 77%. In addition, it took 5.4 nM to reach a half-maximal effect under setting [2] (EC50).

As to `O=S1(=O)COc2cc(-c3ccc(N4CCN(c5ncc(Cl)cn5)CC4)c(F)c3)ccc21` [Example A-65, 6-(4-(5-Chloropyrimidin-2-yl)piperazin-1-yl)-3-fluorophenyl-2H-benzo[d][1,3]oxathiole 3,3-dioxide], under setting [1], the Emax worked out at 84%. Further, under setting [2], the EC50 was 112 nM.

On to `CC(C)c1cnc(N2CCC(COc3ccc(-c4ccc5c(c4)OCS5(=O)=O)cc3F)CC2)nc1` [Example A-66, 6-(3-Fluoro-4-(1-(5-isopropylpyrimidin-2-yl)piperidin-4-yl)methoxy)phenyl-2H-benzo[d][1,3]oxathiole 3,3-dioxide], for which, under setting [3], the Emax was 80% and the EC50 worked out at 19.1 nM.

For `COc1cnc(N2CCC(COc3ccc(-c4ccc5c(c4)OCS5(=O)=O)cc3F)CC2)nc1` [Example A-67, 6-(3-Fluoro-4-(1-(5-methoxypyrimidin-2-yl)piperidin-4-yl)methoxy)phenyl-2H-benzo[d][1,3]oxathiole 3,3-dioxide], under setting [3], the Emax worked out at 72% and the EC50 worked out at 21.4 nM.

Take `CCc1cnc(N2CCC[C@@H]2COc2ccc(-c3ccc4c(c3)OCS4(=O)=O)cc2F)nc1` [Example A-71]: under setting [3], the Emax was 51% and the EC50 turned out to be 1690 nM.

Take `CCc1cnc(N2CCC(COc3cnc(-c4ccc5c(c4)OCS5(=O)=O)nc3)CC2)nc1` [Example A-76, 6-(5-((1-(5-Ethylpyrimidin-2-yl)piperidin-4-yl)methoxy)pyrimidin-2-yl)-2H-benzo[d][1,3]oxathiole 3,3-dioxide]: under setting [3], the Emax was 87% and the EC50 was 8.2 nM.

On to `CCc1cnc(N2CCC[C@H]2COc2ccc(-c3ccc4c(c3)OCS4(=O)=O)cc2F)nc1` [Example A-80], for which, under setting [3], the Emax was 25% and the response was half-maximal at 1310 nM (EC50).

Regarding `CCc1cnc(N2CC[C@H](COc3ccc(-c4ccc5c(c4)OCS5(=O)=O)cc3F)C2)nc1` [Example A-86, (S)-6-(4-((1-(5-Ethylpyrimidin-2-yl)pyrrolidin-3-yl)methoxy)-3-fluorophenyl)-2H-benzo[d][1,3]oxathiole 3,3-dioxide], under setting [3], the Emax is 96% and the EC50 is 166 nM.

Regarding `O=S1(=O)COc2cc(-c3ccc(OC[C@H]4CCN(c5ncc(Cl)cn5)C4)c(F)c3)ccc21` [Example A-89, (S)-6-(4-((1-(5-Chloropyrimidin-2-yl)pyrrolidin-3-yl)methoxy)-3-fluorophenyl)-2H-benzo[d][1,3]oxathiole 3,3-dioxide], under setting [3], the Emax was 93% and the EC50 was 46 nM.

As for `CCc1ccnc(N2CC[C@H](COc3ccc(-c4ccc5c(c4)OCS5(=O)=O)cc3F)C2)n1` [Example A-92, (S)-6-(4-((1-(4-Ethylpyrimidin-2-yl)pyrrolidin-3-yl)methoxy)-3-fluorophenyl)-2H-benzo[d][1,3]oxathiole 3,3-dioxide], under setting [3], the Emax worked out at 90% and the EC50 came to 58 nM.

Where the note is “Table B-2 entries 1-14, protocol as described (800 000 cells/mL, 5 uL/well), CHO-GPR119 cells”, `Fc1cc(-c2ccc3c(c2)OCS3)ccc1OCC1CCN(c2ncc(Cl)cn2)CC1` [Example B-12] registered an EC50 of 280 nM.
